From patent publication US20230286970A1, “NOVEL OXADIAZOLE-BASED SELECTIVE HDAC6 INHIBITORS” (ITALFARMACO S.P.A., priority 2020, published 2023)

Key:
recombinant human HDAC6 = recombinant human HDAC6 (Homo sapiens (Human), UniProt Q9UBN7); experiment: Enzymatic screening, HDAC6 inhibition (fluorogenic FdL_G substrate); type: biochemical
Summary of the method: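 Enzyme was preincubated with compound (8 doses, triplicate, 1% DMSO) in 25 mM Tris-HCl pH 8, 130 mM NaCl, 0.05% Tween-20, 10% glycerol, with BSA. A FLUOR DE LYS-Green substrate was then added, and fluorescence was read after developer plus 2 μM TSA.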

recombinant human HDAC1 = recombinant human HDAC1 (Homo sapiens (Human), UniProt Q13547); experiment: Enzymatic screening, HDAC1 inhibition (fluorogenic FdL_G substrate); type: biochemical
Chain of recombinant human HDAC1 (Q13547 whole entry): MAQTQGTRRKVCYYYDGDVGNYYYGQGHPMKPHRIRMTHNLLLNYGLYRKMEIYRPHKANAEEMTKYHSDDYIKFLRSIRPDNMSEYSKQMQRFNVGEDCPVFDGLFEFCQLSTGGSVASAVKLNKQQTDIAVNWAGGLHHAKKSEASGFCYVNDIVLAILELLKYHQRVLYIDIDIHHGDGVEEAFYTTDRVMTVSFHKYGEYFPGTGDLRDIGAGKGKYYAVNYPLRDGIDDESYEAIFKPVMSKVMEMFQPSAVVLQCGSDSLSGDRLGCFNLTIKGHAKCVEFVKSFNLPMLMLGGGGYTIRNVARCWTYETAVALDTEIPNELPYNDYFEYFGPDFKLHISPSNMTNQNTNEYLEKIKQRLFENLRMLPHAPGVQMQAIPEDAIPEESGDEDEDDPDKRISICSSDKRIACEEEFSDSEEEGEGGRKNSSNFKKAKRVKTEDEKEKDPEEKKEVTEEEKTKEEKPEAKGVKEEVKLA
Summary of the method: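 Recombinant human HDAC1 inhibition was measured fluorometrically using the FLUOR DE LYS-Green (FdL_G) substrate. Compounds at 8 doses (1% DMSO final) in Tris-HCl pH 8 buffer with NaCl, Tween-20 and glycerol were preincubated in triplicate with enzyme and 1 mg/mL BSA, then given substrate. Developer I plus 2 μM TSA was added, and fluorescence read after 25 minutes in the dark.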

Chain of recombinant human HDAC6 (Q9UBN7 whole entry): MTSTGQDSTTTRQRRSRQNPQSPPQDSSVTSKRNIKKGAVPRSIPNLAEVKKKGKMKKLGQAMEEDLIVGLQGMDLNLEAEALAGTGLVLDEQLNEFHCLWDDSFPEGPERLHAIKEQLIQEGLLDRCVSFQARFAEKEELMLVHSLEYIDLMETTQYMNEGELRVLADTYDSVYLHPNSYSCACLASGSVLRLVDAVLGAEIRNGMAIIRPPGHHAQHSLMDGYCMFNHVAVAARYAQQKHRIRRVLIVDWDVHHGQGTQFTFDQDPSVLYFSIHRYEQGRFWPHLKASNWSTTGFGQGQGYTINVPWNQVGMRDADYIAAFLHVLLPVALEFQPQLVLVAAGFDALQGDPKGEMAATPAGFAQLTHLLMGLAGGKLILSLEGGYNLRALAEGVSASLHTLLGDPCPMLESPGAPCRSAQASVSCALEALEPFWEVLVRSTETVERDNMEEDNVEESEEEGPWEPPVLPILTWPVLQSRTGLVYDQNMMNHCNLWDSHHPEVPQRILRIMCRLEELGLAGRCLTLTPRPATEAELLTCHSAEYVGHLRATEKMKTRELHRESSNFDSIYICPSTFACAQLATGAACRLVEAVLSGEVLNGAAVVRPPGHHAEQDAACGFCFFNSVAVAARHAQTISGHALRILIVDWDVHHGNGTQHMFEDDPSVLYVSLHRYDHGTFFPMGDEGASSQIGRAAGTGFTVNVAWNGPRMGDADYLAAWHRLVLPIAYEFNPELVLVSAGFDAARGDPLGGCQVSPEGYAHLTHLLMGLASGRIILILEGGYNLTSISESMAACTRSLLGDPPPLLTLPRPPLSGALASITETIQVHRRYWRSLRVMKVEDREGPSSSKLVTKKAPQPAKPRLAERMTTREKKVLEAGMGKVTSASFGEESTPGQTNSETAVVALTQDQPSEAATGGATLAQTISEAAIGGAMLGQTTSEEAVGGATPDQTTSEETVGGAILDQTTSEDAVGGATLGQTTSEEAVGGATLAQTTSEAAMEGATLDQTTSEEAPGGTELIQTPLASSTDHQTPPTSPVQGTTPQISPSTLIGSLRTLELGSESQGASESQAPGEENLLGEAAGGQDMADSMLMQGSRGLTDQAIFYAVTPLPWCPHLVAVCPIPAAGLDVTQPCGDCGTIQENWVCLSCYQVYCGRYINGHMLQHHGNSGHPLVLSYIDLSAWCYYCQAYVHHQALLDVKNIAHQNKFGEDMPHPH

| Compound | IC50 (recombinant human HDAC6) [nM] | IC50 (recombinant human HDAC1) [µM] |
| --- | --- | --- |
| NCc1ccc(-c2nc(Cc3c(F)cc(-c4nnc(C(F)F)o4)cc3F)no2)cc1 [compound 100, (4-(3-(4-(5-(difluoromethyl)-1,3,4-oxadiazol-2-yl)-2,6-difluorobenzyl)-1,2,4-oxadiazol-5-yl)phenyl)methanamine] | 39 | > 200 |
| Nc1nc2ccc(-c3cn(Cc4ncc(-c5nnc(C(F)F)o5)cc4F)nn3)cc2s1 [compound 342, 6-[1-[[5-[5-(difluoromethyl)-1,3,4-oxadiazol-2-yl]-3-fluoropyridin-2-yl]methyl]triazol-4-yl]-1,3-benzothiazol-2-amine] | 32 | > 1000 |
| CNc1ncc2cc(-c3cn(Cc4ccc(-c5nnc(C(F)F)o5)cc4F)nn3)ccc2n1 [compound 390, 6-[1-({4-[5-(difluoromethyl)-1,3,4-oxadiazol-2-yl]-2-fluorophenyl}methyl)-1H-1,2,3-triazol-4-yl]-N-methylquinazolin-2-amine] | 116 | 1000 |
| O=C(Nc1cccc(-c2cn(Cc3ccc(-c4nnc(C(F)F)o4)cc3Cl)nn2)c1)N1CCOCC1 [compound 337, N-[3-[1-[[2-chloro-4-[5-(difluoromethyl)-1,3,4-oxadiazol-2-yl]phenyl]methyl]triazol-4-yl]phenyl]morpholine-4-carboxamide] | 45 | > 1000 |
| Fc1c(Cn2nnc(-c3cccc(-c4nc5c([nH]4)CCNC5)c3)n2)ccc(-c2nnc(C(F)F)o2)c1F [compound 355, 2-(difluoromethyl)-5-[2,3-difluoro-4-[[5-[3-(4,5,6,7-tetrahydro-1H-imidazo[4,5-c]pyridin-2-yl)phenyl]tetrazol-2-yl]methyl]phenyl]-1,3,4-oxadiazole] | 62 | > 1000 |
| CN1CC(=O)Nc2cc(-c3cn(Cc4c(F)cc(-c5nnc(C(F)F)o5)cc4F)nn3)ccc2C1 [Compd. 237, 8-(1-(4-(5-(difluoromethyl)-1,3,4-oxadiazol-2-yl)-2,6-difluorobenzyl)-1H-1,2,3-triazol-4-yl)-4-methyl-1,3,4,5-tetrahydro-2H-benzo[e][1,4]diazepin-2-one] | 210 | > 200 |
| Nc1nc2ccc(-c3cn(Cc4ccc(-c5nnc(C(F)F)o5)c(F)c4)nn3)cc2s1 [compound 347, 6-[1-[[4-[5-(difluoromethyl)-1,3,4-oxadiazol-2-yl]-3-fluorophenyl]methyl]triazol-4-yl]-1,3-benzothiazol-2-amine] | 27 | > 1000 |
| CC(=O)N1CCC(c2nnn(Cc3ccc(-c4nnc(C(F)F)o4)cc3)n2)CC1 [compound 257, 1-(4-(2-(4-(5-(difluoromethyl)-1,3,4-oxadiazol-2-yl)benzyl)-2H-tetrazol-5-yl)piperidin-1-yl)ethan-1-one] | 395 | > 200 |
| Cn1c(N)nc2cc(-c3cn(Cc4cc(F)c(-c5nnc(C(F)F)o5)cc4F)nn3)ccc21 [compound 350, 5-[1-[[4-[5-(difluoromethyl)-1,3,4-oxadiazol-2-yl]-2,5-difluorophenyl]methyl]triazol-4-yl]-1-methylbenzimidazol-2-amine] | 22 | > 1000 |
| O=C(c1cccc(-c2nnn(Cc3c(F)cc(-c4nnc(C(F)F)o4)cc3F)n2)c1)N1CCOCC1 [compound 112, (3-(2-(4-(5-(difluoromethyl)-1,3,4-oxadiazol-2-yl)-2,6-difluorobenzyl)-2H-tetrazol-5-yl)phenyl)(morpholino)methanone] | 42 | > 200 |
| CNc1ccc2cc(-c3nnn(Cc4ccc(-c5nnc(C(F)F)o5)c(F)c4)n3)ccc2n1 [compound 403, 6-[2-[[4-[5-(difluoromethyl)-1,3,4-oxadiazol-2-yl]-3-fluorophenyl]methyl]tetrazol-5-yl]-N-methylquinolin-2-amine] | 117 | 1000 |
| NCc1ccc(-c2nc(Cc3ccc(-c4nnc(C(F)F)o4)cc3)no2)cc1 [compound 191, (4-(3-(4-(5-(difluoromethyl)-1,3,4-oxadiazol-2-yl)benzyl)-1,2,4-oxadiazol-5-yl)phenyl)methanamine] | 102 | > 200 |
| CNc1ncc2cc(-c3cn(Cc4c(F)cc(-c5nnc(C(F)F)o5)cc4F)nn3)ccc2n1 [compound 392, 6-[1-({4-[5-(difluoromethyl)-1,3,4-oxadiazol-2-yl]-2,6-difluorophenyl}methyl)-1H-1,2,3-triazol-4-yl]-N-methylquinazolin-2-amine] | 102 | 1000 |
| CC(C)(C)OC(=O)N1CCC2(C1)C(=O)Nc1ccc(-c3cn(Cc4ccc(-c5nnc(C(F)F)o5)cn4)nn3)cc12 (single isomer, unassigned) [compound 266, tert-butyl 5-[1-({5-[5-(difluoromethyl)-1,3,4-oxadiazol-2-yl]pyridin-2-yl}methyl)-1H-1,2,3-triazol-4-yl]-2-oxo-1,2-dihydrospiro[indole-3,3′-pyrrolidine]-1′-carboxylate] | 35 | > 200 |
| Cn1c(=N)n(C)c2cc(-c3cn(Cc4ccc(-c5nnc(C(F)F)o5)cc4)nn3)ccc21 [compound 162, 5-(1-(4-(5-(difluoromethyl)-1,3,4-oxadiazol-2-yl)benzyl)-1H-1,2,3-triazol-4-yl)-1,3-dimethyl-1,3-dihydro-2H-benzo[d]imidazol-2-imine] | 76 | 45.1 |
| O=C1Nc2cc(-c3cn(Cc4ccc(-c5nnc(C(F)F)o5)cn4)nn3)ccc2C12CCCC2 [compound 123, 6′-(1-((5-(5-(difluoromethyl)-1,3,4-oxadiazol-2-yl)pyridin-2-yl)methyl)-1H-1,2,3-triazol-4-yl)spiro[cyclopentane-1,3′-indolin]-2′-one] | 46 | > 200 |
| CC(C)(c1ccncc1)c1nnn(Cc2ccc(-c3nnc(C(F)F)o3)cc2)n1 [compound 219, 2-(difluoromethyl)-5-(4-((5-(2-(pyridin-4-yl)propan-2-yl)-2H-tetrazol-2-yl)methyl)phenyl)-1,3,4-oxadiazole] | 156 | > 200 |
| O=c1[nH]c2ccc(-c3nnn(Cc4ccc(-c5nnc(C(F)F)o5)cc4)n3)cc2[nH]1 [compound 168, 5-(2-(4-(5-(difluoromethyl)-1,3,4-oxadiazol-2-yl)benzyl)-2H-tetrazol-5-yl)-1,3-dihydro-2H-benzo[d]imidazol-2-one] | 79 | > 200 |
| FC(F)c1nnc(-c2ccc(Cn3nnc(-c4cccc(-c5ccccc5)c4)n3)cc2)o1 [compound 246, 2-(4-((5-([1,1′-biphenyl]-3-yl)-2H-tetrazol-2-yl)methyl)phenyl)-5-(difluoromethyl)-1,3,4-oxadiazole] | 266 | > 200 |
| FC(F)c1nnc(-c2ccc(Cn3nnc(-c4cccc5cnccc45)n3)cc2)o1 [compound 153, 2-(difluoromethyl)-5-(4-((5-(isoquinolin-5-yl)-2H-tetrazol-2-yl)methyl)phenyl)-1,3,4-oxadiazole] | 66 | > 200 |
| CS(=O)(=O)NCC[C@H](c1ccc(-c2nnc(C(F)F)o2)cc1)n1cc(-c2ccc(N)nc2)nn1 [compound 311, N-[(3R)-3-[4-(6-aminopyridin-3-yl)triazol-1-yl]-3-[4-[5-(difluoromethyl)-1,3,4-oxadiazol-2-yl]phenyl]propyl]methanesulfonamide] | 25 | > 1000 |
| Fc1cc(-c2nnc(C(F)F)o2)c(F)cc1Cn1nnc(-c2cccc(-c3nc4c([nH]3)CCNC4)c2)n1 [compound 367, 2-(difluoromethyl)-5-[2,5-difluoro-4-[[5-[3-(4,5,6,7-tetrahydro-1H-imidazo[4,5-c]pyridin-2-yl)phenyl]tetrazol-2-yl]methyl]phenyl]-1,3,4-oxadiazole] | 26 | 168 |
| Nc1cccc(-c2cn(Cc3ccc(-c4nnc(C(F)F)o4)cc3)cn2)c1 [compd. 197, 3-(1-(4-(5-(difluoromethyl)-1,3,4-oxadiazol-2-yl)benzyl)-1H-imidazol-4-yl)aniline] | 107 | > 200 |
| Cn1c(N)nc2cc(-c3nnn(Cc4ccc(-c5nnc(C(F)F)o5)cc4Cl)n3)ccc21 [compound 374, 5-[2-[[2-chloro-4-[5-(difluoromethyl)-1,3,4-oxadiazol-2-yl]phenyl]methyl]tetrazol-5-yl]-1-methylbenzimidazol-2-amine] | 101 | > 1000 |
| CN1CCC(NC(=O)c2ccc(-c3nnn(Cc4ccc(-c5nnc(C(F)F)o5)cc4)n3)cc2)CC1 [compound 232, 4-(2-(4-(5-(difluoromethyl)-1,3,4-oxadiazol-2-yl)benzyl)-2H-tetrazol-5-yl)-N-(1-methylpiperidin-4-yl)benzamide] | 198 | > 200 |
| Nc1ccc(-c2cn(C(CCN3CCCC3)c3ccc(-c4nnc(C(F)F)o4)cc3)nn2)cn1 (centres unmarked) [compound 323, 5-(1-(1-(4-(5-(difluoromethyl)-1,3,4-oxadiazol-2-yl)phenyl)-3-(pyrrolidin-1-yl)propyl)-1H-1,2,3-triazol-4-yl)pyridin-2-amine] | 49 | 47.9 |
| O=C(Nc1cccc(-c2nc(Cc3ccc(-c4nnc(C(F)F)o4)cc3)no2)c1)N1CCOCC1 [compound 228, N-(3-(3-(4-(5-(difluoromethyl)-1,3,4-oxadiazol-2-yl)benzyl)-1,2,4-oxadiazol-5-yl)phenyl)morpholine-4-carboxamide] | 178 | > 200 |
| FC(F)c1nnc(-c2ccc(Cn3nnc(-c4ccc5ccncc5c4)n3)cc2)o1 [compound 127, 2-(difluoromethyl)-5-(4-((5-(isoquinolin-7-yl)-2H-tetrazol-2-yl)methyl)phenyl)-1,3,4-oxadiazole] | 49 | > 200 |
